Measured values as given in the NIST ThermoML archive (doi:10.1021/je049793l).
± gives the expanded uncertainty stated by the source.

Legend:
[1] = 298.15 K; 101.3 kPa; Liquid
[2] = xn = mol fraction of the nth substance listed; conditions: 298.15 K, 101.3 kPa, Liquid

Cc1ccccc1C [1,2-dimethylbenzene]
mass density [1]: 875.2 ± 1 kg/m3 | speed of sound [1]: 1349 ± 3 m/s | viscosity [1]: 0.768 ± 0.013 mPa·s

Cc1ccccc1C [1,2-dimethylbenzene] + CCC(C)=O
mass density ([2]; x1 = 1): 875.2 ± 1 kg/m3 | speed of sound ([2]; x1 = 1): 1349 ± 3 m/s | viscosity ([2]; x1 = 1): 0.768 ± 0.013 mPa·s

Cc1cccc(C)c1 [1,3-dimethylbenzene]
mass density [1]: 859.4 ± 1 kg/m3 | speed of sound [1]: 1323 ± 4 m/s | viscosity [1]: 0.587 ± 0.011 mPa·s

Cc1cccc(C)c1 [1,3-dimethylbenzene] + CCC(C)=O
mass density ([2]; x1 = 0.0428): 803.5 ± 0.9 kg/m3 | speed of sound ([2]; x1 = 0.0428): 1204 ± 4 m/s | viscosity ([2]; x1 = 0.0428): 0.384 ± 0.009 mPa·s | mass density ([2]; x1 = 0.1084): 809.2 ± 0.9 kg/m3 | speed of sound ([2]; x1 = 0.1084): 1218 ± 4 m/s | viscosity ([2]; x1 = 0.1084): 0.398 ± 0.009 mPa·s | mass density ([2]; x1 = 0.2261): 818.3 ± 0.9 kg/m3 | speed of sound ([2]; x1 = 0.2261): 1240 ± 4 m/s | viscosity ([2]; x1 = 0.2261): 0.422 ± 0.009 mPa·s | mass density ([2]; x1 = 0.3524): 827 ± 0.9 kg/m3 | speed of sound ([2]; x1 = 0.3524): 1256 ± 4 m/s | viscosity ([2]; x1 = 0.3524): 0.448 ± 0.01 mPa·s | mass density ([2]; x1 = 0.4941): 835.7 ± 0.9 kg/m3 | speed of sound ([2]; x1 = 0.4941): 1273 ± 4 m/s | viscosity ([2]; x1 = 0.4941): 0.478 ± 0.01 mPa·s | mass density ([2]; x1 = 0.646): 844.1 ± 0.9 kg/m3 | speed of sound ([2]; x1 = 0.646): 1293 ± 4 m/s | viscosity ([2]; x1 = 0.646): 0.51 ± 0.01 mPa·s | mass density ([2]; x1 = 0.8137): 852 ± 1 kg/m3 | speed of sound ([2]; x1 = 0.8137): 1312 ± 4 m/s | viscosity ([2]; x1 = 0.8137): 0.546 ± 0.011 mPa·s | mass density ([2]; x1 = 0.9235): 856.7 ± 1 kg/m3 | speed of sound ([2]; x1 = 0.9235): 1320 ± 4 m/s | viscosity ([2]; x1 = 0.9235): 0.57 ± 0.011 mPa·s | mass density ([2]; x1 = 1): 859.4 ± 1 kg/m3 | speed of sound ([2]; x1 = 1): 1323 ± 4 m/s | viscosity ([2]; x1 = 1): 0.587 ± 0.011 mPa·s

Cc1ccc(C)cc1 [1,4-dimethylbenzene]
mass density [1]: 856.1 ± 1 kg/m3 | speed of sound [1]: 1316 ± 3 m/s | viscosity [1]: 0.609 ± 0.011 mPa·s

Cc1ccc(C)cc1 [1,4-dimethylbenzene] + CCC(C)=O
mass density ([2]; x1 = 1): 856.1 ± 1 kg/m3 | speed of sound ([2]; x1 = 1): 1316 ± 3 m/s | viscosity ([2]; x1 = 1): 0.609 ± 0.011 mPa·s

CCC(C)=O [butanone]
mass density [1]: 799.6 ± 0.9 kg/m3 | speed of sound [1]: 1195 ± 3 m/s | viscosity [1]: 0.376 ± 0.009 mPa·s

CCC(C)=O [butanone] + CC(C)c1ccccc1
mass density ([2]; x2 = 0): 799.6 ± 0.9 kg/m3 | speed of sound ([2]; x2 = 0): 1195 ± 3 m/s | viscosity ([2]; x2 = 0): 0.376 ± 0.009 mPa·s

CCC(C)=O [butanone] + Cc1ccc(C)cc1
mass density ([2]; x2 = 0): 799.6 ± 0.9 kg/m3 | speed of sound ([2]; x2 = 0): 1195 ± 3 m/s | viscosity ([2]; x2 = 0): 0.376 ± 0.009 mPa·s | mass density ([2]; x2 = 0.0429): 806 ± 0.9 kg/m3 | speed of sound ([2]; x2 = 0.0429): 1218 ± 3 m/s | viscosity ([2]; x2 = 0.0429): 0.392 ± 0.009 mPa·s | mass density ([2]; x2 = 0.1074): 813.8 ± 0.9 kg/m3 | speed of sound ([2]; x2 = 0.1074): 1237 ± 3 m/s | viscosity ([2]; x2 = 0.1074): 0.414 ± 0.009 mPa·s | mass density ([2]; x2 = 0.2235): 823.5 ± 0.9 kg/m3 | speed of sound ([2]; x2 = 0.2235): 1257 ± 3 m/s | viscosity ([2]; x2 = 0.2235): 0.444 ± 0.009 mPa·s | mass density ([2]; x2 = 0.3501): 830.4 ± 0.9 kg/m3 | speed of sound ([2]; x2 = 0.3501): 1272 ± 3 m/s | viscosity ([2]; x2 = 0.3501): 0.471 ± 0.01 mPa·s | mass density ([2]; x2 = 0.4895): 836.6 ± 0.9 kg/m3 | speed of sound ([2]; x2 = 0.4895): 1289 ± 3 m/s | viscosity ([2]; x2 = 0.4895): 0.5 ± 0.01 mPa·s | mass density ([2]; x2 = 0.6419): 842.9 ± 0.9 kg/m3 | speed of sound ([2]; x2 = 0.6419): 1299 ± 3 m/s | viscosity ([2]; x2 = 0.6419): 0.533 ± 0.01 mPa·s | mass density ([2]; x2 = 0.8117): 849.6 ± 1 kg/m3 | speed of sound ([2]; x2 = 0.8117): 1308 ± 3 m/s | viscosity ([2]; x2 = 0.8117): 0.572 ± 0.011 mPa·s | mass density ([2]; x2 = 0.9213): 853.2 ± 1 kg/m3 | speed of sound ([2]; x2 = 0.9213): 1313 ± 3 m/s | viscosity ([2]; x2 = 0.9213): 0.596 ± 0.011 mPa·s

CCC(C)=O [butanone] + Cc1cccc(C)c1
mass density ([2]; x2 = 0): 799.6 ± 0.9 kg/m3 | speed of sound ([2]; x2 = 0): 1195 ± 4 m/s | viscosity ([2]; x2 = 0): 0.376 ± 0.009 mPa·s

CCC(C)=O [butanone] + Cc1ccccc1C
mass density ([2]; x2 = 0): 799.6 ± 0.9 kg/m3 | speed of sound ([2]; x2 = 0): 1195 ± 3 m/s | viscosity ([2]; x2 = 0): 0.376 ± 0.009 mPa·s | mass density ([2]; x2 = 0.0437): 805.6 ± 0.9 kg/m3 | speed of sound ([2]; x2 = 0.0437): 1208 ± 3 m/s | viscosity ([2]; x2 = 0.0437): 0.39 ± 0.009 mPa·s | mass density ([2]; x2 = 0.1095): 813.7 ± 0.9 kg/m3 | speed of sound ([2]; x2 = 0.1095): 1222 ± 3 m/s | viscosity ([2]; x2 = 0.1095): 0.412 ± 0.009 mPa·s | mass density ([2]; x2 = 0.2288): 825.7 ± 0.9 kg/m3 | speed of sound ([2]; x2 = 0.2288): 1244 ± 3 m/s | viscosity ([2]; x2 = 0.2288): 0.451 ± 0.01 mPa·s | mass density ([2]; x2 = 0.3564): 836.2 ± 0.9 kg/m3 | speed of sound ([2]; x2 = 0.3564): 1266 ± 3 m/s | viscosity ([2]; x2 = 0.3564): 0.493 ± 0.01 mPa·s | mass density ([2]; x2 = 0.4969): 846.1 ± 0.9 kg/m3 | speed of sound ([2]; x2 = 0.4969): 1288 ± 3 m/s | viscosity ([2]; x2 = 0.4969): 0.542 ± 0.011 mPa·s | mass density ([2]; x2 = 0.65): 856 ± 1 kg/m3 | speed of sound ([2]; x2 = 0.65): 1310 ± 3 m/s | viscosity ([2]; x2 = 0.65): 0.601 ± 0.011 mPa·s | mass density ([2]; x2 = 0.8165): 865.9 ± 1 kg/m3 | speed of sound ([2]; x2 = 0.8165): 1331 ± 3 m/s | viscosity ([2]; x2 = 0.8165): 0.673 ± 0.012 mPa·s | mass density ([2]; x2 = 0.9244): 871.7 ± 1 kg/m3 | speed of sound ([2]; x2 = 0.9244): 1339 ± 3 m/s | viscosity ([2]; x2 = 0.9244): 0.727 ± 0.013 mPa·s

CC(C)c1ccccc1 [isopropylbenzene]
mass density [1]: 857.1 ± 1 kg/m3 | speed of sound [1]: 1338 ± 3 m/s | viscosity [1]: 0.739 ± 0.013 mPa·s

CC(C)c1ccccc1 [isopropylbenzene] + CCC(C)=O
mass density ([2]; x1 = 0.0377): 805 ± 0.9 kg/m3 | speed of sound ([2]; x1 = 0.0377): 1204 ± 3 m/s | viscosity ([2]; x1 = 0.0377): 0.388 ± 0.009 mPa·s | mass density ([2]; x1 = 0.0964): 812.2 ± 0.9 kg/m3 | speed of sound ([2]; x1 = 0.0964): 1217 ± 3 m/s | viscosity ([2]; x1 = 0.0964): 0.408 ± 0.009 mPa·s | mass density ([2]; x1 = 0.2025): 821.7 ± 0.9 kg/m3 | speed of sound ([2]; x1 = 0.2025): 1240 ± 3 m/s | viscosity ([2]; x1 = 0.2025): 0.445 ± 0.009 mPa·s | mass density ([2]; x1 = 0.3251): 829.5 ± 0.9 kg/m3 | speed of sound ([2]; x1 = 0.3251): 1262 ± 3 m/s | viscosity ([2]; x1 = 0.3251): 0.486 ± 0.01 mPa·s | mass density ([2]; x1 = 0.4599): 835.4 ± 0.9 kg/m3 | speed of sound ([2]; x1 = 0.4599): 1279 ± 3 m/s | viscosity ([2]; x1 = 0.4599): 0.535 ± 0.01 mPa·s | mass density ([2]; x1 = 0.615): 842 ± 0.9 kg/m3 | speed of sound ([2]; x1 = 0.615): 1290 ± 3 m/s | viscosity ([2]; x1 = 0.615): 0.592 ± 0.011 mPa·s | mass density ([2]; x1 = 0.7937): 849.2 ± 1 kg/m3 | speed of sound ([2]; x1 = 0.7937): 1298 ± 3 m/s | viscosity ([2]; x1 = 0.7937): 0.66 ± 0.012 mPa·s | mass density ([2]; x1 = 0.9123): 853.9 ± 1 kg/m3 | speed of sound ([2]; x1 = 0.9123): 1308 ± 3 m/s | viscosity ([2]; x1 = 0.9123): 0.705 ± 0.012 mPa·s | mass density ([2]; x1 = 1): 857.1 ± 1 kg/m3 | speed of sound ([2]; x1 = 1): 1338 ± 3 m/s | viscosity ([2]; x1 = 1): 0.739 ± 0.013 mPa·s
